“And” between values parts separate entries of the source, which are not always exact repeats. Equal entries are not always repeated.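 A five-concentration, 48-hour dose response in 96-well plates underlies each endpoint, interpolated linearly between surrounding concentrations. Here, GI50 denotes the concentration required for 50% inhibition of growth. Definition used: TGI = concentration required for complete inhibition of growth.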
Key:
Test in all cases: NCI-60 cell line screen, 48 h
KM20L2 colon = test system: KM20L2 colon
XF 498 CNS = test system: XF 498 CNS
M19-MEL melanoma = test system: M19-MEL melanoma
DMS 114 small cell lung = test system: DMS 114 small cell lung
LXFL 529 NSCLC = test system: LXFL 529 NSCLC
SNB-78 CNS = test system: SNB-78 CNS
DMS 273 small cell lung = test system: DMS 273 small cell lung
MDA-MB-231 breast = test system: MDA-MB-231 breast
HS 578T breast = test system: HS 578T breast
DU-145 prostate = test system: DU-145 prostate
MCF7 breast = test system: MCF7 breast
NCI/ADR-RES ovarian = test system: NCI/ADR-RES ovarian

SMILES | TGI (KM20L2 colon) | TGI (XF 498 CNS) [µM] | TGI (M19-MEL melanoma) | TGI (DMS 114 small cell lung) | TGI (LXFL 529 NSCLC) | TGI (SNB-78 CNS) [µM] | TGI (DMS 273 small cell lung) [µM] | TGI (MDA-MB-231 breast) [µM] | TGI (HS 578T breast) [µM] | TGI (DU-145 prostate) [µM] | TGI (MCF7 breast) [µM] | TGI (NCI/ADR-RES ovarian) [µM] | GI50 (M19-MEL melanoma) [µM] | GI50 (LXFL 529 NSCLC) [µM]
CC(C)C/C(CC(=O)CCC(=O)Nc1ccccc1[N+](=O)[O-])=N\NC(=O)c1cc2ccccc2cc1O | > 100 µM | > 100 | 65.1 µM | 86.8 µM | > 100 µM | – | – | – | – | – | – | – | – | –
N#CC(c1ccc(Cl)cc1)c1cccc(C(C#N)c2ccc(Cl)cc2)n1 (stereo unspecified) | > 100 µM | 26.2 | > 100 µM | – | > 100 µM | > 100 | – | – | – | – | – | – | – | –
O=C1C(=O)N(c2ccc(Cl)cc2Cl)C(=O)C(=O)C1c1nc2ccccc2s1 | > 100 µM | 98.1 | > 100 µM | > 100 µM | > 100 µM | – | > 100 | – | – | – | – | – | – | –
COc1cc2c(cc1OC)-c1c3cc(O)ccc3nn[n+]1CC2 | > 100 µM | > 100 | > 100 µM | > 100 µM | > 100 µM | > 100 | > 100 | – | – | – | – | – | – | –
Cc1cc(C)nc(NS(=O)(=O)c2ccc(NC(=O)c3ccc(Cl)c4c(Nc5ccc(S(=O)(=O)Nc6nc(C)cc(C)n6)cc5)c5ccccc5nc34)cc2)n1 | 69.9 µM | > 100 | 8.28 µM | 8.54 µM | 61.2 µM | > 100 | > 100 | – | – | – | – | – | – | –
CN(C)CC[N+]1=Nc2cccc3cccc(c23)N1 | > 100 µM | > 100 | > 100 µM | > 100 µM | > 100 µM | > 100 | 35.6 | – | – | – | – | – | – | –
CCCCC(=O)OCC(=O)[C@]1(O)Cc2c(O)c3c(c(O)c2[C@@H](OC2CC(NC(=O)C(F)(F)F)C(O)C(C)O2)C1)C(=O)c1c(OC)cccc1C3=O (stereo partly specified) | > 100 µM | 0.97 | 1.9 µM | 1.66 µM | > 32.7 µM | – | 3.39 | > 100 | 5.05 | 2.44 | – | – | – | –
COC1CCC2C(NS(=O)(=O)c3ccc(C)cc3)CCCC2O1 (stereo unspecified) (tested in a mixture with another compound) | > 34.5 µM | – | > 34.5 µM | 27.9 µM | – | > 34.5 | 22.8 | – | – | – | – | – | – | –
O=C(O)CCc1coc2ccc(O)cc12 | > 100 µM | > 100 | > 100 µM | > 100 µM | > 100 µM | > 100 | > 100 | – | – | – | – | – | – | –
CCCCCCCCCCCCCCCCCC(CCCCCCCCCCCCCCCCC)OP(=O)(O)O | > 100 µM | – | > 100 µM | > 100 µM | > 100 µM | > 100 | > 100 | – | – | – | – | – | – | –
O=C(CC1(O)C(=O)Nc2c(Cl)cc(Cl)cc21)c1ccc(Br)cc1Br (stereo unspecified) | 33.9 µM | 23.8 | 25.1 µM | 20.3 µM | – | > 74.9 | 22.9 | 41.3 | 26.5 | 32.3 | 29.6 | – | – | –
CC(=O)NNc1nc(C)c(C(=O)NNC(=O)C(=O)Nc2c(Cl)cc([N+](=O)[O-])cc2Cl)s1 | > 100 µM | – | > 100 µM | 94.9 µM | > 100 µM | > 100 | > 100 | – | – | – | – | – | – | –
O=C(/C=C/c1ccccc1)NC1C=Nc2ccc(Cl)cc2NC1=O (stereo unspecified) | 62.9 µM | 50.1 | 64.5 µM | 30.4 µM | > 100 µM | > 100 | 54.6 | – | – | – | – | – | – | –
O=C(N/C(=C\c1ccc(/C=C(\NC(=O)c2ccccc2)c2nc3cc([N+](=O)[O-])ccc3[nH]2)cc1)c1nc2cc([N+](=O)[O-])ccc2[nH]1)c1ccccc1 | > 100 µM | – | > 100 µM | > 100 µM | > 100 µM | > 100 | > 100 | – | – | – | – | – | – | –
CN1C(=O)C(C)(C)C2(SC(C)(C)C2(C)C)N(C)C1=S (stereo unspecified) | – | – | > 100 µM | > 100 µM | > 100 µM | > 100 | > 100 | – | – | – | – | – | – | –
CC(C)=CC(=O)C1c2cccc(O)c2C(=O)c2c(O)cc(C)cc21 (stereo unspecified) | 17.6 µM | 3.11 | 3.43 µM | 3.57 µM | 4.47 µM | 7.84 | 9.46 | – | – | – | – | – | – | –
COC(CN1C(=O)c2cccc3cccc(c23)C1=O)OC | > 100 µM | > 100 | > 100 µM | > 100 µM | > 100 µM | > 100 | > 100 | – | – | – | – | – | – | –
Clc1cc2nsnc2c(Cl)n1 | > 100 µM | 31.2 | 75.5 µM | 33.5 µM | 27.8 µM | > 100 | > 100 | – | – | – | – | – | – | –

SMILES | TGI (KM20L2 colon) | TGI (XF 498 CNS) [µM] | TGI (M19-MEL melanoma) | TGI (DMS 114 small cell lung) | TGI (LXFL 529 NSCLC) | TGI (SNB-78 CNS) [µM] | TGI (DMS 273 small cell lung) [µM] | TGI (MDA-MB-231 breast) [µM] | TGI (HS 578T breast) [µM] | TGI (DU-145 prostate) [µM] | TGI (MCF7 breast) [µM] | TGI (NCI/ADR-RES ovarian) [µM] | GI50 (M19-MEL melanoma) [µM] | GI50 (LXFL 529 NSCLC) [µM]
O=C1C2C(C(=O)N1OS(=O)(=O)c1ccccc1)N(Cc1ccccc1)C(=O)N2Cc1ccccc1 (stereo unspecified) | > 100 µM | > 100 | > 100 µM | > 100 µM | > 100 µM | > 100 | – | – | – | – | – | – | – | –
COc1ccc2c3c1C(=O)CCCC3CO2 (stereo unspecified) | – | > 100 | > 100 µM | > 100 µM | > 100 µM | > 100 | > 100 | – | – | – | – | – | – | –
C=C1C(=O)C23CC1CCC2C12CO[C@@H]4OCC(C)(CC[C@@H]1OC3=O)C42 (stereo partly specified) | 17.5 µM | 3.41 | 19.6 µM | 4.16 µM | 9.39 µM | 9.57 | 19.6 | – | – | – | – | – | – | –
CC1(c2ccc(F)cc2)C(C#N)C(=O)NC(=O)C1C#N (stereo unspecified) | > 100 µM | > 100 | > 100 µM | > 100 µM | > 100 µM | – | > 100 | – | – | – | – | – | – | –
O=CN/C=C/c1cc(O)ccc1O | > 80.3 µM | 34.1 | 28.5 µM | 31.8 µM | 23.9 µM | 44.3 | > 100 | – | – | > 100 | 30.2 | 42.1 | – | –
COC1(OC)CCC2C1C1CCC(OC)(OC)C21 (stereo unspecified) | > 50 µM | > 50 | > 50 µM | > 50 µM | > 50 µM | > 50 | > 50 | – | – | – | – | – | – | –
Cc1ccc(N=Nc2ccc(N(CCC#N)CCC#N)cc2C)c(Br)c1 | – | 40.6 | > 100 µM | > 100 µM | > 100 µM | > 100 | 41.4 | – | – | – | – | – | – | –
O=C(COc1ccc(Br)cc1Br)N1N=C(c2ccc([N+](=O)[O-])o2)CC1(O)c1ccccc1 (stereo unspecified) | 58.8 µM | – | – | 23.5 µM | 21.6 µM | > 100 | 32.5 | – | – | – | – | – | – | –
O=S1(=O)c2ccccc2NC(c2ccc3ccccc3c2)CC1c1ccccc1F (stereo unspecified) | > 100 µM | > 100 | > 100 µM | – | – | – | > 100 | – | – | – | – | – | – | –
O=CC[C@H]1C(=O)C[C@@H]2CCC[C@@H]21 | – | > 100 | > 100 µM | – | > 100 µM | > 100 | – | – | – | – | – | – | – | –
O=C(O)c1ccccc1[Se][Se]c1ccccc1C(=O)O | 68.5 µM | > 100 | > 100 µM | > 100 µM | – | – | > 100 | – | – | – | – | – | – | –
CCCCCCCCCCCOc1ccc(C(=O)C(=O)c2ccc(OCCCCCCCCCCC)c(OCCCCCCCCCCC)c2)cc1OCCCCCCCCCCC | > 100 µM | > 100 | > 100 µM | > 100 µM | > 100 µM | > 100 | > 100 | – | – | – | – | – | – | –
COC(=O)[C@@H]1[C@H](O)[C@H](C)[C@H](O)[C@@](C)(O)/C=C\C=C(C)C(=O)Nc2c(C)c(OC(C)=O)c3c(c2O)C(=O)C(C)=C2OCOC(=C23)C(C)=C[C@@](C)(O)[C@H](O)[C@@H](C)[C@H]1OC(C)=O | 66.9 µM and > 100 µM | – | > 100 µM and 21.6 µM and 28.3 µM | > 100 µM and 21.9 µM | > 100 µM and 66.9 µM | > 100 | > 100 | – | – | > 66.9 | – | – | 15 | 35.6
COC(=O)CC1CCN(C#N)CC1CC[N+](=O)[O-] (stereo unspecified) | > 100 µM | – | > 100 µM | > 100 µM | > 100 µM | > 100 | > 100 | – | – | – | – | – | – | –
C/C(CC(=O)CCC(=O)Nc1cccc(C(F)(F)F)c1)=N\NC(=O)NN | > 100 µM | > 100 | > 100 µM | > 100 µM | > 100 µM | > 100 | > 100 | – | – | – | – | – | – | –
COc1ccccc1C12OC(=O)C1(C)Oc1ccccc1C2=O (stereo unspecified) | > 100 µM | > 100 | > 100 µM | > 100 µM | > 100 µM | > 100 | 86.4 | – | – | – | – | – | – | –
CCOC(=O)CN1C(=O)c2cccc3cc([N+](=O)[O-])cc(c23)C1=O | 26.5 µM | 4.49 | – | 4.94 µM | 3.13 µM | 19.3 | – | – | – | – | – | – | – | –
